PMC10516900 (Communications Biology, 2023)
Where “and” joins values, the source holds several entries; their conditions need not be identical. Equal entries are not always repeated.

What was measured:
HCT116 (p53+/+) cells = assay: Q-PCR relative expression levels, HCT116 (p53+/+); format: cell-based, human
USP7 = settings: cited from earlier work; for potency and specificity for USP7: recently reported USP7 inhibitors
USP47 = settings: cited from earlier work
[1] = tested on: multiple myeloma xenograft models; settings: in vitro and in vivo multiple myeloma xenograft models; cited from earlier work
hUSP7CD^N460AH461A = molecular target: T1, hUSP7CD^N460AH461A (Homo sapiens, UniProt Q93009, H461A/N460A); assay: Ub-AMC enzymatic inhibition assay, hUSP7CD^N460AH461A; format: biochemical; settings: FT671 5 μM, Fig. 5d
T1 construct: Swiss Prot entry: Q93009, residues 208–560; His6 (N); made in house; host or cells: E. coli BL21 (DE3) codon plus RIL
T1 sequence (Q93009 208-560 N460A/H461A): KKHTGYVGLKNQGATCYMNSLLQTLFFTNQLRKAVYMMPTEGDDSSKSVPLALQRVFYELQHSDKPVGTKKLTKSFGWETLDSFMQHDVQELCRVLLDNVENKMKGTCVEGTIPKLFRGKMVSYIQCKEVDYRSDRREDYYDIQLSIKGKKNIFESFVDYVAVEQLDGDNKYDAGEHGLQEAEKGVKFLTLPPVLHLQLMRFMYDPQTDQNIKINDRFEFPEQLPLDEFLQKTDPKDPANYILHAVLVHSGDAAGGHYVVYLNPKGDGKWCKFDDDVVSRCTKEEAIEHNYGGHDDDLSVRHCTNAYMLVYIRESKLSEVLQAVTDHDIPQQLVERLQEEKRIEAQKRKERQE
Method: (§2) Enzymes and substrates were diluted in the reaction buffer (20 mM HEPES, pH 7.4, 150 mM NaCl, and 5 mM DTT) to a concentration of 5 μM for the substrate and 0.5 μM for the enzymes. […] USP enzymatic activity and inhibition assays were measured at room temperature using the cleavage-sensitive fluorogenic substrate Ub-AMC (Boston Biochem, U-550). […] The AMC fluorescence emission was monitored at 460 nm (excitation at 380 nm) for 30–60 min using a SpectraMax M3 plate reader (Molecular Devices). […] The data were fitted using GraphPad Prism 7 (GraphPad Inc.). Fluorescence intensity was recorded every 45 s for 90 min. Data are presented as the mean ± SD (n = 3).

cUSP47CD = cUSP47CD (Caenorhabditis elegans, UniProt Q22240); assay: Ub-AMC enzymatic inhibition assay, cUSP47CD; format: biochemical; settings: FT671 5 μM
cUSP47CD, sequence (Q22240 entry or part of it): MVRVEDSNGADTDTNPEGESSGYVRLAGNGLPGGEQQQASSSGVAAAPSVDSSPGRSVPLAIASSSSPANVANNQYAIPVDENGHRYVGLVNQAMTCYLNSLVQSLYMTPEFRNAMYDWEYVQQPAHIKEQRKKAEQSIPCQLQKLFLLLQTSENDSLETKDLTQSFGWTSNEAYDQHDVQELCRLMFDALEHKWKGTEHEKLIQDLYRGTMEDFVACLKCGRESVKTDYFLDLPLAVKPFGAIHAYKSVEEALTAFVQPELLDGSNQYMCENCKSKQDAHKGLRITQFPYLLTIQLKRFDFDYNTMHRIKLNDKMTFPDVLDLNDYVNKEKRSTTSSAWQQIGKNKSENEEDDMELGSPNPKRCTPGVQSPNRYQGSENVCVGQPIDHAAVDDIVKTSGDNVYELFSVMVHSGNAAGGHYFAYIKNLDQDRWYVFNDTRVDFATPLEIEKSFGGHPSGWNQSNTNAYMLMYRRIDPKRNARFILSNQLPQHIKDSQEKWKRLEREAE
Method: (§1) Enzymes and substrates were diluted in the reaction buffer (20 mM HEPES, pH 7.4, 150 mM NaCl, and 5 mM DTT) to a concentration of 5 μM for the substrate and 0.5 μM for the enzymes. At the indicated time points following the reaction initiation, 10 μL reaction aliquots were taken and the reaction was stopped by adding SDS sampling buffer and analyzed using SDS-PAGE. Then, the 4–15% gradient gel was stained with Coomassie Brilliant Blue R-250. USP enzymatic activity and inhibition assays were measured at room temperature using the cleavage-sensitive fluorogenic substrate Ub-AMC (Boston Biochem, U-550). The deubiquitination assay was performed following the protocol by Ernst et al.[30]. Briefly, enzyme activity assays were performed in assay buffer in 20 mM HEPES (pH 7.4), 100 mM NaCl, and 5 mM DTT) containing cUSP47CD (in 50 nM), hUSP47CD-UBL12 (in 100 nM) or hUSP7CD (in 100 nM) constructs and serial dilutions of Ub-AMC (final 35 μM). The AMC fluorescence emission was monitored at 460 nm (excitation at 380 nm) for 30–60 min using a SpectraMax M3 plate reader (Molecular Devices). […] The data were fitted using GraphPad Prism 7 (GraphPad Inc.). Fluorescence intensity was recorded every 45 s for 90 min. Data are presented as the mean ± SD (n = 3).

cUSP47CD^R309N = assay: Ub-AMC enzymatic inhibition assay, cUSP47CD^R309N; format: biochemical, Caenorhabditis elegans; settings: FT671 5 μM, Fig. 5d
Method: as §1

cUSP47CD^A416NA417H = assay: Ub-AMC enzymatic inhibition assay, cUSP47CD^A416NA417H; format: biochemical, Caenorhabditis elegans; settings: FT671 5 μM, Fig. 5d
Method: as §1

hUSP7CD = molecular target: T2, hUSP7CD (Homo sapiens, UniProt Q93009); assay: Ub-AMC enzymatic inhibition assay, hUSP7CD; format: biochemical; settings: FT671 5 μM, Ub-AMC, Fig. 5d
T2 construct: Swiss Prot entry: Q93009, residues 208–560; His6 (N); made in house; host or cells: E. coli BL21 (DE3) codon plus RIL
T2 sequence (Q93009 208-560): as the sequence (Q93009 208-560 N460A/H461A) above, with A253N, A254H counted along it
Method: as §2

cUSP47CD^R309NA416NA417H = assay: Ub-AMC enzymatic inhibition assay, cUSP47CD^R309NA416NA417H; format: biochemical, Caenorhabditis elegans; settings: FT671 5 μM, Fig. 5d, compared with the double mutant
Method: as §1

## USP47i-2: USP47 siRNA #2, 5′-TGAAAAGGGATGTGCAAAA-3′ (chemistry not given here)
HCT116 (p53+/+) cells
  relative expression level of USP7 (Q-PCR): 0.9487
  relative expression level of USP47 (Q-PCR): 0.486

## CCc1c(-c2ccc(C(=O)NC)nc2)cnc(N)c1-c1ccc(O)cc1 [GNE6776]
USP7
  potency and specificity for USP7: high potency and specificity only for USP7

## CC(=O)c1cc([N+](=O)[O-])c(Sc2cccc(Cl)c2Cl)s1 [P5091, 1-[5-(2,3-dichlorophenylsulfanyl)−4-nitro-2thienl]ethanone]
USP7; read-out: IC50 USP7
  IC50: 4.2 µM
USP47
  IC50: 4.3 µM
[1]
  antitumor efficacy: antitumor efficacy

## USP47i-1: USP47 siRNA #1, 5′-AAGCTACTCCTACTCATCTATTT-3′ (chemistry not given here)
HCT116 (p53+/+) cells
  relative expression level of USP7 (Q-PCR): 0.6273
  relative expression level of USP47 (Q-PCR): 0.3385

## O=C(C[C@@H](C(F)F)n1ccc(F)n1)N1CCC(O)(Cn2cnc3c(cnn3-c3ccc(F)cc3)c2=O)CC1 [FT671]
USP7
  potency and specificity for USP7: high potency and specificity only for USP7
hUSP7CD^N460AH461A
  reduction in the activity of hUSP7CD^N460AH461A in the presence of FT671: ~ 80%
cUSP47CD; Ub-AMC 35 μM, mean and three replicates, 5 µM
  Enzyme activity cUSP47CD+FT671 relative to cUSP47CD without FT671 (=100): 108.41 and 98.6437 and 106.057
cUSP47CD; Ub-AMC 35 μM, mean and three replicates, read-out: Enzyme activity cUSP47CD+FT671 relative to cUSP47CD without FT671 (=100)
  remaining activity at 5 µM: 104%
cUSP47CD; Ub-AMC, Fig. 5d
  inhibition of cUSP47CD wild type by FT671: no inhibition
cUSP47CD^R309N
  change in activity of cUSP47CD^R309N with FT671: no change in the activity
cUSP47CD^A416NA417H
  reduction in the activity of cUSP47CD^A416NA417H with FT671: ~40%
hUSP7CD
  inhibition of USP7 wild type by FT671: complete inhibition
cUSP47CD^R309NA416NA417H
  inhibition of cUSP47CD^R309NA416NA417H by FT671: even more inhibition
